Results from ChEMBL document CHEMBL1201862, “PubChem BioAssay data set” (2004).
Activity calls are given as the source filed them.

Legend:
[1] = target: T1, Cytochrome P450 1A2 (Homo sapiens, UniProt P05177);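 note: PubChem cytochrome P450 panel assay, CYP1A2 panel member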
T1 sequence (P05177 whole entry): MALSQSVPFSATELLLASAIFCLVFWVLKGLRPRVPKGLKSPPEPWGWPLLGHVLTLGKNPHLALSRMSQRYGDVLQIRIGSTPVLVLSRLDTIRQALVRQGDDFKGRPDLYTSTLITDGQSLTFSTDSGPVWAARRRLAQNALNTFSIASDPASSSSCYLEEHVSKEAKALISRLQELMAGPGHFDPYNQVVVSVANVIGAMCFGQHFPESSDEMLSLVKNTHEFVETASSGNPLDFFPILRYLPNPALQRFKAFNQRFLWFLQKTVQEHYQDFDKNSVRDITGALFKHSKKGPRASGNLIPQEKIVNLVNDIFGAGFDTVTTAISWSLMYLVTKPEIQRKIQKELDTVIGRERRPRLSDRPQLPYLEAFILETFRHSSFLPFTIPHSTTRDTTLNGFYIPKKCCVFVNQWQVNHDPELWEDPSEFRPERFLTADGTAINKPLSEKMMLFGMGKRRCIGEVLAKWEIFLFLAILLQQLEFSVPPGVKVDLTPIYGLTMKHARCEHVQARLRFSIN

[2] = target: Cytochrome P450 3A4 (Homo sapiens, UniProt P08684);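 note: CYP3A4 tested as one member of a cytochrome P450 panel screen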
Sequence of Cytochrome P450 3A4 (P08684 whole entry): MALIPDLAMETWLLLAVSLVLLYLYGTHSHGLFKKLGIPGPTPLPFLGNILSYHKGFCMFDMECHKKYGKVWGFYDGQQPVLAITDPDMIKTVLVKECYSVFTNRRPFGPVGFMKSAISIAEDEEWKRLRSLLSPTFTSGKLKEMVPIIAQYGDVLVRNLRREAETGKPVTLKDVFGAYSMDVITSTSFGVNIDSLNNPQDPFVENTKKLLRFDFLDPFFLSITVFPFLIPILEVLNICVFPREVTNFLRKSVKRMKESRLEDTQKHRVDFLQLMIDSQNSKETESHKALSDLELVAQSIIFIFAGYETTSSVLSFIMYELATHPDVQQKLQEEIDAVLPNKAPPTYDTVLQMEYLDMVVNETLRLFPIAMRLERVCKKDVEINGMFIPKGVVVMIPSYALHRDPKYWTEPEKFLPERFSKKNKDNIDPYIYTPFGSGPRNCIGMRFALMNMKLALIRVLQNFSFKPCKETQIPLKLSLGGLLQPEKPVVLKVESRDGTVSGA

[3] = cytotoxicity in MIN6 insulinoma cells, dose response, cytotoxicity control, cell-based, mouse insulinoma (AID 2122); assay type: functional;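 note: confirmatory high-throughput counterscreen run to flag cytotoxic compounds; mouse MIN-6 beta cells carrying an insulin promoter eGFP reporter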
[4] = insulin promoter down-regulators in MIN6 cells, imaging, high-content screening, mouse beta cells (AID 1628); assay type: functional
[5] = Shn3 3'UTR reporter inhibitors, dose response, cell-based, Clone20 osteoblasts, firefly luciferase, cherry-picked (AID 624132); assay type: functional;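 note: firefly luciferase luminescence from reporter carrying the Shn3 3'UTR in osteoblasts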
[6] = cytotoxicity in HEK-293T NF-kB-Luc cells, dose response, cytotoxicity control for B/T-cell NF-kB inhibitor project, cell-based, uHTS hits (AID 489019); assay type: functional;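 note: IC50 reflects cytotoxicity as loss of cell viability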
[7] = HepG2 cell cytotoxicity, dose response, cytotoxicity control for Shn3 inhibitor project, CellTiter-Glo, cherry-picked (AID 624134); assay type: functional, cell-based
[8] = tested on: Jurkat; experiment: antigen receptor-induced NF-kB inhibitors, dose response, Jurkat, luciferase reporter, luminescence, B- and T-cell (AID 489004); assay type: functional, cell-based; details: Homo sapiens;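 note: NF-kB luciferase reporter Jurkat cells stimulated with PMA plus ionomycin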
[9] = control 3'UTR Renilla luciferase suppression, dose response, counter-screen for Shn3 inhibitor project, cell-based, Clone20-Shn3RL, cherry-picked (AID 624133); assay type: functional
[10] = target: Keap1/Nrf2 (Homo sapiens, UniProt Q14145); experiment: Keap1-Nrf2 protein-protein interaction inhibitors, dose response, biochemical, fluorescence polarization, cherry-picked samples (AID 588683)
Sequence of Keap1/Nrf2 (Q16236 whole entry): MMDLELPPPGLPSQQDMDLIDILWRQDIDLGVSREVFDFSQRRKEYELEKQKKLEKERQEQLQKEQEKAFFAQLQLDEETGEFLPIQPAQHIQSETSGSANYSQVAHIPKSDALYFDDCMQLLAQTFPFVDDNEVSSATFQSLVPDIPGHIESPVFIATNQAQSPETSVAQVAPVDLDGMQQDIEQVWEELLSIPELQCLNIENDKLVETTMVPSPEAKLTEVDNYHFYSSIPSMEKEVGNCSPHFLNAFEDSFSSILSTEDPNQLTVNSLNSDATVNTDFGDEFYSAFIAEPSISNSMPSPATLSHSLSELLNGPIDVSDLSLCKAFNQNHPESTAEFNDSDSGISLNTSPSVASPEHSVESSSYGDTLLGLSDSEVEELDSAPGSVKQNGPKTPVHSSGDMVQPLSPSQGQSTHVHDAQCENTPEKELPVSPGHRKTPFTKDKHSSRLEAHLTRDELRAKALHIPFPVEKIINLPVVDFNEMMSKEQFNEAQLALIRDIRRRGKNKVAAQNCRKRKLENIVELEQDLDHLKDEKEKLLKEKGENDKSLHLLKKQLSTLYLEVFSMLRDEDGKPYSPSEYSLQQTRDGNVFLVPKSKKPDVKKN
Sequence of Keap1/Nrf2 (Q14145 whole entry): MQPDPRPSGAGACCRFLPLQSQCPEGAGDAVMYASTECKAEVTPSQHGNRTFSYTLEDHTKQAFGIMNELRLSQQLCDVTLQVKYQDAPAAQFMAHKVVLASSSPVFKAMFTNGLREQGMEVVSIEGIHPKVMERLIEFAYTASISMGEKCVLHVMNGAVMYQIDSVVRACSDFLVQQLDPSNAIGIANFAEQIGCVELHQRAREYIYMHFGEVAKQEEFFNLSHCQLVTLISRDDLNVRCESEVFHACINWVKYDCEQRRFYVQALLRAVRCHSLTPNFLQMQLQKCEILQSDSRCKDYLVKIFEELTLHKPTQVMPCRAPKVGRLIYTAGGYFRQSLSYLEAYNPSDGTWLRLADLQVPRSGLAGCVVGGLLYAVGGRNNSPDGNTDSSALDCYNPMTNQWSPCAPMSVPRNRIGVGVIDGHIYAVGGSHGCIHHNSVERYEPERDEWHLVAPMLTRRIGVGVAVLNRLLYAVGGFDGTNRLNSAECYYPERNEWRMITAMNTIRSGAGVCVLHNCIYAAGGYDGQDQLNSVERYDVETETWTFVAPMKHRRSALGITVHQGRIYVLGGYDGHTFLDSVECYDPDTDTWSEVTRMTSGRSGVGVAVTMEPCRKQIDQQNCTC

[11] = target: T2, ORF 73 (Human herpesvirus 8, UniProt O40947); experiment: inhibitors of C-LANA binding to LBS DNA, dose response, biochemical, fluorescence polarization, cherry-picked samples (AID 504725); design: species or system Human gammaherpesvirus 8;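 note: fluorescence polarization of a labeled DNA duplex reporting LANA DNA binding; potency is for inhibitors that block LANA binding to the DNA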
T2 sequence (O40947 whole entry): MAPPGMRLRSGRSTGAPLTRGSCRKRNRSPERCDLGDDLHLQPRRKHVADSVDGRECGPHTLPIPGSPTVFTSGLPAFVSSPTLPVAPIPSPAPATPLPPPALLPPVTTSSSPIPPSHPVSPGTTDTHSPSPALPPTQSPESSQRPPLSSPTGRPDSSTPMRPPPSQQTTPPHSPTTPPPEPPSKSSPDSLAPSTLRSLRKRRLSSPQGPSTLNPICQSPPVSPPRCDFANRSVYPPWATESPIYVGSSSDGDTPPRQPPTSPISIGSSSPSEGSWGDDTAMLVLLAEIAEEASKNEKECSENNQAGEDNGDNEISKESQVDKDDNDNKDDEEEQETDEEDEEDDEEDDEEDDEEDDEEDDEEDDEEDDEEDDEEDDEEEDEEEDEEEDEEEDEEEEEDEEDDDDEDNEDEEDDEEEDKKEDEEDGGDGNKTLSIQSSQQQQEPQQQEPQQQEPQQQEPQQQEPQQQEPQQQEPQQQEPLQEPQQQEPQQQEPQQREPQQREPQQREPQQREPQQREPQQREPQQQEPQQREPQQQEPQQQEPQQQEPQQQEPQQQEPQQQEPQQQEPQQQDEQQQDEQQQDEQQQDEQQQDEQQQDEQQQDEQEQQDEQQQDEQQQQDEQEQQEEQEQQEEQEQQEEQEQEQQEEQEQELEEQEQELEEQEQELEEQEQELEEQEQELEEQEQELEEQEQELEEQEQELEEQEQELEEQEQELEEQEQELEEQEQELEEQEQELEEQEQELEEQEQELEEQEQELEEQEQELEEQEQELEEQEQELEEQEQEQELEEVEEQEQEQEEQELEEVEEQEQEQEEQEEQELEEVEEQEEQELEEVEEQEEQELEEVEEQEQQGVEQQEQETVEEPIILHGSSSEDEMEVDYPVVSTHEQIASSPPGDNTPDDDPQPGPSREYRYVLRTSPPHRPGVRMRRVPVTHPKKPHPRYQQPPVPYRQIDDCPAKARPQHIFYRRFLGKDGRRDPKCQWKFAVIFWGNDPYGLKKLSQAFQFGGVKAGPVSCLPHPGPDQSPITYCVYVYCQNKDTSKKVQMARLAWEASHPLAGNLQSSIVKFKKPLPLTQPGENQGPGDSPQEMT

[12] = target: UDP-galactopyranose mutase (Mycobacterium tuberculosis, UniProt P9WIQ1); experiment: Inhibitors of Mycobacterium tuberculosis UDP-galactopyranose mutase (UGM) enzyme Measured in Biochemical System Using Plate Reader - 2105-02_Inhibitor_Dose_CherryPick_Activity. [Related pubchem assays (depositor defined):AID504439]
Sequence of UDP-galactopyranose mutase (P9WIQ1 whole entry): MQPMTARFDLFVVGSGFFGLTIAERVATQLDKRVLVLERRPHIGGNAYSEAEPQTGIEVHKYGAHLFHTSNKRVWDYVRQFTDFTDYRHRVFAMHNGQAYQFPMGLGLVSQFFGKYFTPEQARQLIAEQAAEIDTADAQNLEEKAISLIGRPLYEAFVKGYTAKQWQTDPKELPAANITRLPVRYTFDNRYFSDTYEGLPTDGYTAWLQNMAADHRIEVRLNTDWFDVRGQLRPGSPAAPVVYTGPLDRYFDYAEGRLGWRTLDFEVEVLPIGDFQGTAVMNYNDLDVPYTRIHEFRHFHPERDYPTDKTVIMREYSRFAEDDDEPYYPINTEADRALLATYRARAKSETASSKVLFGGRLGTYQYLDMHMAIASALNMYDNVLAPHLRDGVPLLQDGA

[13] = target: T3, High affinity choline transporter 1 (Homo sapiens, UniProt Q9GZV3); experiment: CHT inhibitors, dose response, cell-based, 5-point CRC, membrane potential dye (AID 504840); assay type: functional
T3 sequence (Q9GZV3 whole entry): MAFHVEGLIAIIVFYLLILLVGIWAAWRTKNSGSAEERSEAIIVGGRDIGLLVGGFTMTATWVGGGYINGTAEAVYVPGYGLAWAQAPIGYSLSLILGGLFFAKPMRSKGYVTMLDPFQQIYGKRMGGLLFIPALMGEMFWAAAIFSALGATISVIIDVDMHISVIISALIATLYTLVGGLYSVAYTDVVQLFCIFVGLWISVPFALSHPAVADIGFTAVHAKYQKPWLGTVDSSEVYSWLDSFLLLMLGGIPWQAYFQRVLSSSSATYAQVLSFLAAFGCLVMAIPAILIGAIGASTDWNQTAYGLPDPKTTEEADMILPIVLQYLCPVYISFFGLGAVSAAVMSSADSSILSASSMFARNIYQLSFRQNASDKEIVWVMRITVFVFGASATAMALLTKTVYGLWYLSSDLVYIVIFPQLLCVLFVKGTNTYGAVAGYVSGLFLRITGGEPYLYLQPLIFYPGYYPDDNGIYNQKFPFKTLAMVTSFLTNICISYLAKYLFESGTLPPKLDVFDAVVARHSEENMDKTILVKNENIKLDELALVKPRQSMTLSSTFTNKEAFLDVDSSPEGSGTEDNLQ

[14] = target: T4, Corticotropin-releasing factor receptor 2/Corticotropin-releasing factor-binding protein (Homo sapiens, UniProt P24387+Q13324); experiment: Dose Response confirmation of uHTS hits for small molecule antagonists of the CRF-binding protein and CRF-R2 receptor complex.; assay type: functional; details: read-out: IC50_Mean
T4 sequence (Q13324 whole entry): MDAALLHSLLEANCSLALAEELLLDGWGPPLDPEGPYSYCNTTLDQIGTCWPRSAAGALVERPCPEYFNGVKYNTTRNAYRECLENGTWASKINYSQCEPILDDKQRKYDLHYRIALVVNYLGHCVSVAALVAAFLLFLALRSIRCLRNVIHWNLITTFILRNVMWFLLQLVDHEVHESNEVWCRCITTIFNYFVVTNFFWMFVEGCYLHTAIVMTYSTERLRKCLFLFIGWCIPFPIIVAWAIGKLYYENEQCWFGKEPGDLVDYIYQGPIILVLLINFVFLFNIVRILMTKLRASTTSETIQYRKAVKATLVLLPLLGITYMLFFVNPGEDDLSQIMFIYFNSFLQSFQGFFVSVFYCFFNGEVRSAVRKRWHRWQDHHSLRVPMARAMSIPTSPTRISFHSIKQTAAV
T4 sequence (P24387 whole entry): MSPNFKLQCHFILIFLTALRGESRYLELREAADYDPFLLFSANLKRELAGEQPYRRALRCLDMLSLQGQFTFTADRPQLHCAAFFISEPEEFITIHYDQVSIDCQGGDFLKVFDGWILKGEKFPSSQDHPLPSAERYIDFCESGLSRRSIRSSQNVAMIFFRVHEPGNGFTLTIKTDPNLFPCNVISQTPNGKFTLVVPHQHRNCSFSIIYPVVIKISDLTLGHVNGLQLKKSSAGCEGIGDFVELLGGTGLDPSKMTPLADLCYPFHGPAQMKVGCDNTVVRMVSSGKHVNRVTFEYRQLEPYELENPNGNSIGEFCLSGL

[15] = target: T4, Corticotropin-releasing factor receptor 2/Corticotropin-releasing factor-binding protein; experiment: activators of CRF receptor 2 with binding protein – uHTS hits, confirmation (AID 602473); assay type: functional; details: read-out: EC50_Mean
[16] = tested on: HEK293; experiment: cells; assay type: functional, cell-based; details: Homo sapiens
[17] = cytotoxicity in HEK-293T cells, dose response, cytotoxicity control for TCR NF-kB inhibitor project, luminescence, T-cell screen hits (AID 489026); assay type: functional, cell-based;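 note: cells exposed to compound about 14 hours before the viability readout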
[18] = tested on: HEK293; experiment: NOD1 signaling inhibitors, primary screen, cell-based, luminescence, uHTS (AID 1578); assay type: functional; details: Homo sapiens
[19] = tested on: HEK293; experiment: cells; assay type: functional, cell-based; details: Homo sapiens; remark: listed apart in the source
[20] = tested on: HEK293; experiment: NOD2 signaling inhibitors in MDP-stimulated cells, cell-based, uHTS, luminescence (AID 2001); assay type: functional; details: Homo sapiens
[21] = tested on: INS1; experiment: beta cell apoptosis inhibitors, cytokine rescue, dose response, luminescence, retest (AID 449756); assay type: functional, cell-based; details: Rattus norvegicus;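 note: cell death triggered by IL-1 beta plus TNF-alpha plus IFN-gamma mixture; protective hits raise ATP signal compared with cytokine alone wells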
[22] = inhibitors of PGC1a acetylation in cells, dose response, cell-based, cherry-picked samples (AID 720514); assay type: functional;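 note: potency may reflect raised or lowered acetylation signal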
[23] = THP-1 cell cytotoxicity, dose response, cytotoxicity control for non-replicating M. tuberculosis project (AID 489025); assay type: functional
[24] = cells; assay type: functional
[25] = Vero E6 cell cytotoxicity, dose response, cytotoxicity control for non-replicating M. tuberculosis project, secondary assay (AID 492998); assay type: functional, VeroE6; details: Vero C1008
[26] = HepG2 cell cytotoxicity, dose response, cytotoxicity control for non-replicating M. tuberculosis project (AID 489018); assay type: functional; details: Mycobacterium tuberculosis
[27] = target: SUMO E1/E2 (Homo sapiens, UniProt P63279+Q9UBE0+Q9UBT2); experiment: SAR analysis of SUMOylation using HTRF in an in-Vitro dose response assay. [Related pubchem assays (depositor defined):AID2006, AID2011, AID2018, AID2069, AID2658]; assay type: functional
Sequence of SUMO E1/E2 (Q9UBE0 whole entry): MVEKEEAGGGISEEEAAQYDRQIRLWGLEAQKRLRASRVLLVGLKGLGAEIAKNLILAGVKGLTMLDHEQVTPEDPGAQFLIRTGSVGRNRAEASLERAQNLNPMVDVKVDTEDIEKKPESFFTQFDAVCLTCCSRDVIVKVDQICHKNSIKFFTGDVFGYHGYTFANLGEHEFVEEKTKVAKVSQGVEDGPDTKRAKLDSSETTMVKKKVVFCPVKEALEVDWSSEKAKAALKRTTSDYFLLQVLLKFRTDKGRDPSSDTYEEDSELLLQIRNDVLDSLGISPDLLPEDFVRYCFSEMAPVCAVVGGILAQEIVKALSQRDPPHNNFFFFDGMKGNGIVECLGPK
Sequence of SUMO E1/E2 (Q9UBT2 whole entry): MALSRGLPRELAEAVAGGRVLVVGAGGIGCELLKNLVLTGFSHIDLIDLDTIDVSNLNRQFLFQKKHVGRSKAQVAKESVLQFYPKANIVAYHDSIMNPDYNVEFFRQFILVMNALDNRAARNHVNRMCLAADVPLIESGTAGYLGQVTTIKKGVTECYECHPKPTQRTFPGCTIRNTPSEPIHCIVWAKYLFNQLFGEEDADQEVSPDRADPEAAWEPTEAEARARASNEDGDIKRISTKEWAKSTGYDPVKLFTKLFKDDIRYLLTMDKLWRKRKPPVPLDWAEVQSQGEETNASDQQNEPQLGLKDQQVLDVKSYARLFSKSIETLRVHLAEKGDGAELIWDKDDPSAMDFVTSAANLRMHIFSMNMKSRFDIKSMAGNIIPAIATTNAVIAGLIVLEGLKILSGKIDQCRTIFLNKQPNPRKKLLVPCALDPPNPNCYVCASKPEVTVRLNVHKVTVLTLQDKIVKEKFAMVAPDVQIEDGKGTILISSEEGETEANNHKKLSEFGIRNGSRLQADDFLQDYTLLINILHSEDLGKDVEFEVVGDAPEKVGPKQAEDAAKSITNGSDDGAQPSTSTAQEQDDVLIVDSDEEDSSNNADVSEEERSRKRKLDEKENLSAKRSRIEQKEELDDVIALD
Sequence of SUMO E1/E2 (P63279 whole entry): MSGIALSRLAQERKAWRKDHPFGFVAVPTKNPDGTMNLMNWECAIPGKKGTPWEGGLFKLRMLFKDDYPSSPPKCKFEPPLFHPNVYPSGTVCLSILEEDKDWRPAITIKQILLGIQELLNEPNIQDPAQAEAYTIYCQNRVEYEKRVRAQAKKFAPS

[28] = target: Cytochrome P450 2D6 (Homo sapiens, UniProt P10635);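 note: CYP2D6 member of a cytochrome P450 panel assay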
Sequence of Cytochrome P450 2D6 (P10635 whole entry): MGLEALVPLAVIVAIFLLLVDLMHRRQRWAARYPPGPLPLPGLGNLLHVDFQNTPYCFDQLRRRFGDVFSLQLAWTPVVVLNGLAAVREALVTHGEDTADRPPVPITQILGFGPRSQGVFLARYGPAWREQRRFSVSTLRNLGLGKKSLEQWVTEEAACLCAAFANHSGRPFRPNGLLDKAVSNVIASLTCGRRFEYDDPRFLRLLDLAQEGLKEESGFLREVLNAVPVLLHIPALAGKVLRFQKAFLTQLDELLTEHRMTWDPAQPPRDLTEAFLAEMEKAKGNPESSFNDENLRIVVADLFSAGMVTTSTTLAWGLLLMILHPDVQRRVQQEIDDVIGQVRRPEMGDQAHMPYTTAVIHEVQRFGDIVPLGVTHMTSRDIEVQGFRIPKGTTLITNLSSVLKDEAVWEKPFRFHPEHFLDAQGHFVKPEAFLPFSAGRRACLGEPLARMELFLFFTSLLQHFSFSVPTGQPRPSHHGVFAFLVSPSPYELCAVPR

## CCCN(CCc1ccccc1)[C@H]1CCc2c(O)cccc2C1
[1]
  AC50: 12.6 µM (inconclusive)
[2]
  AC50: inconclusive

## S=C(NCCC1=CCCCC1)NCc1ccco1
[3]
  IC50: 2.64 µM (active)
[4]
  IC50: 2.95 µM (active)

## CC1(c2ccc3ccccc3c2)NC(=O)N(CC(=O)N2CCN(Cc3ccc(C#N)cc3)CC2)C1=O (centres undefined)
[5]
  AC50: 0.416 µM (active)
[6]
  IC50: > 80 µM (inactive)
[7]
  AC50: < 0.26 µM (active)
[8]
  IC50: > 80 µM (inactive)
[9]
  AC50: 1.04 µM (active)

## COCC(=O)N1CCN(c2ccc([N+](=O)[O-])cc2)CC1
[2]
  AC50: inconclusive

## Nc1ccc2nc3c(=O)n(C4CCCCC4)c(=O)[nH]c3nc2c1
[10]
  AC50: 9.04 µM (active)
[11]
  AC50: 1.42 µM (active)
[12]
  AC50: 2.64 µM (active)

## O=c1[nH]c(=O)n(-c2ccc(F)cc2)c2c1C(C(F)(F)F)(C(F)(F)F)N=C(c1ccc(F)cc1)N2
[13]
  IC50: 12 µM (active)
[14]
  IC50: 4.69 µM (active)
[15]
  EC50: > 53 µM (inactive)

## CCn1nc(C)c(CNC(=O)c2ccc(OC3CCN(Cc4ccccn4)CC3)cc2)c1C
[16]
  IC50: 13.8 µM (active)
[17]
  IC50: > 80 µM (inactive)
[18]
  EC50: 2.57 µM (active)
[19]
  IC50: 4.94 µM (active)
[20]
  IC50: 9.64 µM (active)
[21]
  AC50: 3.87 µM (active)

## Cc1cccc(NS(=O)(=O)c2cccc(C(=O)NCC(c3ccco3)N3CCCCC3)c2)c1 (centres undefined)
[13]
  IC50: 22 µM (active)
[22]
  AC50: 32.2 µM (active)

## Cc1cc(C)nc(N=C(N)Nc2ccc(-c3ccccc3)cc2)n1
[23]
  CC50: 9.89 µM (active)
[14]
  IC50: > 47.1 µM (inactive)
[3]
  IC50: 1.36 µM (active)
[5]
  AC50: 4.45 µM (active)
[7]
  AC50: > 70 µM (inactive)
[24]
  IC50: 39 µM (active)
[15]
  EC50: 31.7 µM (active)
[9]
  AC50: 22.6 µM (active)
[25]
  CC50: > 20 µM (active)
[26]
  CC50: 18.2 µM (active)
[4]
  IC50: 1.56 µM (active)

## O=C1c2oc3ccccc3c(=O)c2C(c2ccccc2)N1c1nccs1 (centres undefined)
[27]
  IC50: 22.4 µM (active)

## COCCCNC(=O)c1ccc2c(=O)n(CC3CCCO3)c(=S)[nH]c2c1 (centres undefined)
[28]
  AC50: 0.178 µM (inconclusive)
[1]
  AC50: 20 µM (inconclusive)
[2]
  AC50: inconclusive
